Assay results taken from patent US20200055883A1, “CYCLIC DI-NUCLEOTIDES DERIVATIVE FOR THE TREATMENT OF CANCER” (Eisai R&D Management Co., Ltd., priority 2017, published 2020).

Tests used:
human PBMC [1] = assay: Ex vivo human PBMC stimulation assay, IFNβ protein; format: cell-based; conditions: 0.1, 1, 10 uM, 24 hours
Procedure: After 24 hours of incubation the tubes were centrifuged at 1400 rpm for 5 minutes and supernatants were harvested. Supernatant were stored in −80° C. for subsequent IFNβ measurement. IFNβ measurement was done using Human IFN-β Base Kit (Meso Scale Diagnostics cat # K151ADA) and protocol provided by manufacturer was used. IFN-beta estimation was done by reading assay plate at MESO SECTOR Imager 2400 and using MSD Discovery Workbench 4.0 program. After 24 hours IFNβ protein was analyzed.
Results shown in Table 10 reflect an average of measurements conducted using five different donors.

[2] = tested on: hepatocytes of Sprague Dawley rat; assay: Hepatocyte incubation, metabolite identification, rat; format: in vitro ADME; conditions: LC-MS/MS
From the text: (§1) Cryopreserved pooled hepatocytes were purchased from ThermoFisher Scientific (Waltham, Mass.), Xenotech, LLC (Kansas City, Kans.) and In Vitro ADMET Laboratories (Columbia, Md.), and the appropriate media were purchased from In Vitro ADMET Laboratories (Columbia, Md.) and Life Technologies (Carlsbad, Calif.). AOPI staining solution and phosphate buffer were obtained from Corning Life Sciences (Tewksbury, Mass.) and Nexcelom Bioscience (Lawrence, Mass.), respectively. All chemicals, reagents, and solvents used in analysis were of either analytical or HPLC grade.
(§2) Prior to incubations, the cryopreserved hepatocytes were thawed in a water bath at 37° C. One tube of cryopreserved hepatocytes was added to each 50-mL conical tube of cryopreserved hepatocyte recovery medium (UCRM) obtained from In Vitro ADMET Laboratories (Columbia, Md.). The cells were spun in a Beckman centrifuge (Brea, Calif.) with a GH 3.8 rotor at 740 rpm for 10 minutes at room temperature 4° C. […] The solution was gently mixed and cells were counted using a Cellometer (Nexcelom, Lawrence, Mass.). […]
(§3) The LC-MS/MS system was composed of a Shimadzu HPLC and an AB-SCIEX TripleTOF 5600 hybrid quadrupole and TOF mass spectrometer (Framingham, Mass.). […] The samples obtained from incubations with hepatocytes were analyzed under both negative and positive scan modes. […]

hepatocytes of human = assay: Hepatocyte incubation, metabolite identification, human; format: in vitro ADME; conditions: LC-MS/MS
From the text: as §1, §2, §3

human PBMC [3] = assay: Ex vivo human PBMC stimulation assay, IFNβ mRNA (qPCR); conditions: 0.1-10 μM, 3 hr and 24 hr
Procedure: For IFNβ mRNA quantification, total RNA was isolated using the RNeasy Mini Kit (Qiagen, Germany) according to the manufacturer's protocol. IFNβ mRNA was quantified by qPCR assay. In brief, total RNA (400 ng to 1000 ng) was converted to cDNA in a 60-μl reaction volume using SuperScript VILO MasterMix (Life Technologies, USA). Obtained cDNAs (10 ng) were subsequently amplified using Applied Biosystems TaqMan expression assays using RNA-specific primers for IFNB1 (Hs01077958_s1), and GAPDH (Hs99999905_m1). A qPCR analysis was performed with TaqMan Fast Advanced Master Mix (Life Technologies, USA) on the Applied Biosystems Quantstudio 12K Flex Real-Time PCR System, with an initial 2-min step at 50° C. followed by 95° C. for 2 s and 40 cycles of 95° C. for 1 s and 60° C. for 20 s. Relative gene expression was calculated after normalization against the reference gene GAPDH using the 2-ΔΔCT method. Calculations were done using the Applied Biosystems Quantstudio 12K Flex software v1.2.2.

CT26 tumor = assay: CT26 dual tumor model; conditions: all the lower doses (0.6-5 mg/kg), I.T., single dose
Procedure: For study B, treatment was started 8 days (0.6 mg/kg, and 10 mg/kg) after the tumor implantation, when the average tumors reached approximately 120 mm^3.
All the mice in the study have two subcutaneous CT26 tumors. The “treated tumor” indicates the tumor with compound direct administration, while “untreated tumor” indicates the tumor without direct compound administration. Tumor volume was followed throughout the experiment. Tumor volume is measured two times weekly after the start of treatment. Tumor burden is calculated from caliper measurements by the formula for the volume of a prolate ellipsoid (L×W^2)/2 where L and W are the respective orthogonal length and width measurements (mm).

[4] = tested on: hepatocytes of Beagle dog; assay: Hepatocyte incubation, metabolite identification, dog; format: in vitro ADME; conditions: LC-MS/MS
From the text: as §1, §2, §3

[5] = tested on: hepatocytes of CD-1 mouse; assay: Hepatocyte incubation, metabolite identification, mouse; format: in vitro ADME; conditions: LC-MS/MS
From the text: as §1, §2, §3

[6] = tested on: hepatocytes of Cynomolgus monkey; assay: Hepatocyte incubation, metabolite identification, monkey; format: in vitro ADME; conditions: LC-MS/MS
From the text: as §1, §2, §3

metabolites identified in hepatocyte incubations [2]: No apparent metabolite
metabolites identified in hepatocyte incubations (hepatocytes of human): No apparent metabolite
metabolites identified in hepatocyte incubations [4]: No apparent metabolite
metabolites identified in hepatocyte incubations [5]: No apparent metabolite
metabolites identified in hepatocyte incubations [6]: No apparent metabolite
SMILES: O=[P@]1(S)OC[C@H]2O[C@@H]3[C@H](F)[C@@H]2O[P@](=O)(S)OC[C@H]2O[C@H]([C@H](F)[C@@H]2O1)n1cnc2c(ncnc21)NC/C=C/CNc1ncnc2c1ncn23 [Compound 1a]
induction of primary human PBMC IFNβ protein production (human PBMC [1]): dose-dependent manner
induction of IFNβ mRNA in primary PBMC (human PBMC [3]): dose- and time-dependent manner
anti-tumor effect on untreated tumors (CT26 tumor): tumor growth inhibition activity
